In BindingDB's records for doi:10.1021/cb700025j (Burnham Institute for Medical Research, 2007) one finds IC50 and Kd data, which are given here for 1 compound.

Test [1] deals with T1, Mitogen-activated protein kinase 14 (Homo sapiens, UniProt Q16539). As to the kind of experiment: Kinase Activity Assay. The conditions noted are these: pH 7. The procedure: In vitro kinase activity and selectivity was determined by using SelectScreen kinase profiling Z'-LYTE assay from Invitrogen.
The target of test [2] is T1, Mitogen-activated protein kinase 14. The test can be described thus: Fluorescence-Based Competition Assay. The conditions noted are these: pH 7. The source says: The competitive binding between test compounds and a fluorescence p38 alpha inhibitor, SK&F 86002.

pIC50, pKd: −log10 of the molar value.

T1 sequence (Q16539 whole entry): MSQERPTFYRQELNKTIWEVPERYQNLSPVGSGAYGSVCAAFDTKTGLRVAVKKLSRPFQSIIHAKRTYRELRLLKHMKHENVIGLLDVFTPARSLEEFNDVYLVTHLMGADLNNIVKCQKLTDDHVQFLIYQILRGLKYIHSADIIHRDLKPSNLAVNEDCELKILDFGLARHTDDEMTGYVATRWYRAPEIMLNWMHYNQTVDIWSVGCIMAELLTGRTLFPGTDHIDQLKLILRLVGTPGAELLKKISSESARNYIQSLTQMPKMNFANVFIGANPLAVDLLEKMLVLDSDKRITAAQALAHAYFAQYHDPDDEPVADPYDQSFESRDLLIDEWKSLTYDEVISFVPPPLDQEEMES

The term pIC50 denotes the negative decadic logarithm of the IC50, by convention in mol/L. A higher pIC50 goes with a small IC50. The term pKd denotes the negative decadic logarithm of the Kd, by convention in mol/L. For the compound `C=C1SN(C)c2ccc(S(=O)(=O)Nc3ccccc3N3CCCCC3)cc21` [BI-12H11], the pIC50 is 6.15 in test [1] and 5.25 in test [2]. In addition, the pKd in test [1] was 6.12.
